From PubChem BioAssay (NCI)
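Briefly, cells in 96-well plates were exposed to five compound concentrations for 48 h, and endpoints were estimated by linear interpolation. GI50 marks 50% less growth. TGI is the concentration that stops growth completely.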

Key:
Assay in all cases: NCI tumour cell line growth inhibition, 48 h
786-0 renal = system: 786-0 renal
A498 renal = system: A498 renal
A549 NSCLC = system: A549 NSCLC
ACHN renal = system: ACHN renal
BT-549 breast = system: BT-549 breast
CAKI-1 renal = system: CAKI-1 renal
CCRF-CEM leukemia = system: CCRF-CEM leukemia
DU-145 prostate = system: DU-145 prostate
EKVX NSCLC = system: EKVX NSCLC
HCC-2998 colon = system: HCC-2998 colon
HCT-116 colon = system: HCT-116 colon
HCT-15 colon = system: HCT-15 colon
HL-60(TB) leukemia = system: HL-60(TB) leukemia
HOP-62 NSCLC = system: HOP-62 NSCLC
HOP-92 NSCLC = system: HOP-92 NSCLC
HS 578T breast = system: HS 578T breast
HT29 colon = system: HT29 colon
IGROV1 ovarian = system: IGROV1 ovarian
K-562 leukemia = system: K-562 leukemia
KM12 colon = system: KM12 colon
LOX IMVI melanoma = system: LOX IMVI melanoma
M14 melanoma = system: M14 melanoma
MALME-3M melanoma = system: MALME-3M melanoma
MCF7 breast = system: MCF7 breast
MDA-MB-231 breast = system: MDA-MB-231 breast
MDA-MB-435 = system: MDA-MB-435
MOLT-4 leukemia = system: MOLT-4 leukemia
NCI-H226 lung = system: NCI-H226 lung
NCI-H23 lung = system: NCI-H23 lung
NCI-H460 lung = system: NCI-H460 lung
NCI-H522 lung = system: NCI-H522 lung
NCI/ADR-RES ovarian = system: NCI/ADR-RES ovarian
OVCAR-3 ovarian = system: OVCAR-3 ovarian
OVCAR-4 ovarian = system: OVCAR-4 ovarian
OVCAR-5 ovarian = system: OVCAR-5 ovarian
OVCAR-8 ovarian = system: OVCAR-8 ovarian
PC-3 prostate = system: PC-3 prostate
RPMI-8226 leukemia = system: RPMI-8226 leukemia
RXF 393 renal = system: RXF 393 renal
SF-268 CNS = system: SF-268 CNS
SF-295 CNS = system: SF-295 CNS
SF-539 CNS = system: SF-539 CNS
SK-MEL-2 melanoma = system: SK-MEL-2 melanoma
SK-MEL-28 melanoma = system: SK-MEL-28 melanoma
SK-MEL-5 melanoma = system: SK-MEL-5 melanoma
SK-OV-3 ovarian = system: SK-OV-3 ovarian
SN12C renal = system: SN12C renal
SNB-19 CNS = system: SNB-19 CNS
SNB-75 CNS = system: SNB-75 CNS
SR leukemia = system: SR leukemia
SW-620 colon = system: SW-620 colon
T-47D breast = system: T-47D breast
TK-10 renal = system: TK-10 renal
U251 CNS = system: U251 CNS
UACC-257 melanoma = system: UACC-257 melanoma
UACC-62 melanoma = system: UACC-62 melanoma
UO-31 renal = system: UO-31 renal
COLO 205 colon = system: COLO 205 colon

C[S+](C)CC(=O)c1ccc2c(c1)Sc1ccccc1O2
TGI (786-0 renal): 9.49 µM | TGI (A498 renal): 26.9 µM | TGI (A549 NSCLC): 18.1 µM | TGI (ACHN renal): 16.1 µM | TGI (BT-549 breast): 6.17 µM | TGI (CAKI-1 renal): 15 µM | TGI (CCRF-CEM leukemia): > 100 µM | TGI (DU-145 prostate): 11 µM | TGI (EKVX NSCLC): 14.4 µM | TGI (HCC-2998 colon): 7.71 µM | TGI (HCT-116 colon): 7.32 µM | TGI (HCT-15 colon): 13.2 µM | TGI (HL-60(TB) leukemia): > 100 µM | TGI (HOP-62 NSCLC): 28.4 µM | TGI (HOP-92 NSCLC): 21.5 µM | TGI (HS 578T breast): 22.1 µM | TGI (HT29 colon): 9.15 µM | TGI (IGROV1 ovarian): 8.1 µM | TGI (K-562 leukemia): > 100 µM | TGI (KM12 colon): 2.87 µM | TGI (LOX IMVI melanoma): 20.9 µM | TGI (M14 melanoma): 3.48 µM | TGI (MALME-3M melanoma): 12 µM | TGI (MCF7 breast): 7.28 µM | TGI (MDA-MB-231 breast): 18.7 µM | TGI (MDA-MB-435): 10.1 µM | TGI (MOLT-4 leukemia): > 94.4 µM | TGI (NCI-H226 lung): 11.5 µM | TGI (NCI-H23 lung): 14 µM | TGI (NCI-H460 lung): 16.2 µM | TGI (NCI-H522 lung): 2.5 µM | TGI (NCI/ADR-RES ovarian): > 39.7 µM | TGI (OVCAR-3 ovarian): 7.58 µM | TGI (OVCAR-4 ovarian): 15.4 µM | TGI (OVCAR-5 ovarian): 18.8 µM | TGI (OVCAR-8 ovarian): 13.6 µM | TGI (PC-3 prostate): 4.03 µM | TGI (RPMI-8226 leukemia): > 39.2 µM | TGI (RXF 393 renal): 9.23 µM | TGI (SF-268 CNS): 14.6 µM | TGI (SF-295 CNS): 16 µM | TGI (SF-539 CNS): 2.29 µM | TGI (SK-MEL-2 melanoma): 10 µM | TGI (SK-MEL-28 melanoma): 25.1 µM | TGI (SK-MEL-5 melanoma): 2.92 µM | TGI (SK-OV-3 ovarian): 19.6 µM | TGI (SN12C renal): 36.3 µM | TGI (SNB-19 CNS): 17.1 µM | TGI (SNB-75 CNS): 14.2 µM | TGI (SR leukemia): > 50.9 µM | TGI (SW-620 colon): > 43.2 µM | TGI (T-47D breast): > 44.4 µM | TGI (TK-10 renal): 16.3 µM | TGI (U251 CNS): 17.6 µM | TGI (UACC-257 melanoma): 18.2 µM | TGI (UACC-62 melanoma): 9.38 µM | TGI (UO-31 renal): 12 µM

C(=C\c1nccc2c1[nH]c1ccccc12)/c1ccccc1
GI50 (786-0 renal): 3.49 µM | TGI (786-0 renal): 10.7 µM | GI50 (A498 renal): 4.36 µM | TGI (A498 renal): 15.9 µM | GI50 (A549 NSCLC): 4.09 µM | TGI (A549 NSCLC): > 100 µM | GI50 (ACHN renal): 4.82 µM | TGI (ACHN renal): 20.8 µM | GI50 (BT-549 breast): 2.22 µM | TGI (BT-549 breast): 10.2 µM | GI50 (CCRF-CEM leukemia): 2.1 µM | TGI (CCRF-CEM leukemia): 6.03 µM | GI50 (COLO 205 colon): 1.56 µM | TGI (COLO 205 colon): 3.62 µM | GI50 (DU-145 prostate): 3.5 µM | TGI (DU-145 prostate): 12.3 µM | GI50 (EKVX NSCLC): 1.72 µM | TGI (EKVX NSCLC): 59.6 µM | GI50 (HCC-2998 colon): 2.96 µM | TGI (HCC-2998 colon): 9.43 µM | GI50 (HCT-116 colon): 2.71 µM | TGI (HCT-116 colon): 10.7 µM | GI50 (HCT-15 colon): 2.43 µM | TGI (HCT-15 colon): 17.5 µM | GI50 (HL-60(TB) leukemia): 2.07 µM | TGI (HL-60(TB) leukemia): 5.55 µM | GI50 (HOP-62 NSCLC): 2.97 µM | TGI (HOP-62 NSCLC): 22.3 µM | GI50 (HOP-92 NSCLC): 2.19 µM | TGI (HOP-92 NSCLC): 19.8 µM | GI50 (HS 578T breast): 2.35 µM | TGI (HS 578T breast): 9.34 µM | GI50 (HT29 colon): 3.07 µM | TGI (HT29 colon): 11.9 µM | GI50 (IGROV1 ovarian): 0.664 µM | TGI (IGROV1 ovarian): 23.6 µM | GI50 (K-562 leukemia): 2.25 µM | TGI (K-562 leukemia): 37.2 µM | GI50 (KM12 colon): 2.15 µM | TGI (KM12 colon): 11.3 µM | GI50 (LOX IMVI melanoma): 2.99 µM | TGI (LOX IMVI melanoma): 12.2 µM | GI50 (M14 melanoma): 2.91 µM | TGI (M14 melanoma): > 100 µM | GI50 (MALME-3M melanoma): 4.5 µM | TGI (MALME-3M melanoma): 27.7 µM | GI50 (MCF7 breast): 2.15 µM | TGI (MCF7 breast): 23 µM | GI50 (MDA-MB-231 breast): 1.76 µM | TGI (MDA-MB-231 breast): 8.02 µM | GI50 (MDA-MB-435): 0.356 µM | TGI (MDA-MB-435): 1.81 µM | GI50 (MOLT-4 leukemia): 2.84 µM | TGI (MOLT-4 leukemia): 22.3 µM | GI50 (NCI-H226 lung): 4.09 µM | TGI (NCI-H226 lung): > 100 µM | GI50 (NCI-H23 lung): 3.78 µM | TGI (NCI-H23 lung): > 100 µM | GI50 (NCI-H460 lung): 3.28 µM | TGI (NCI-H460 lung): 13.7 µM | GI50 (NCI-H522 lung): 2.38 µM | TGI (NCI-H522 lung): 7.94 µM | GI50 (NCI/ADR-RES ovarian): 3.1 µM | TGI (NCI/ADR-RES ovarian): 20.3 µM | GI50 (OVCAR-3 ovarian): 2.31 µM | TGI (OVCAR-3 ovarian): 6.65 µM | GI50 (OVCAR-4 ovarian): 3.18 µM | TGI (OVCAR-4 ovarian): > 100 µM | GI50 (OVCAR-5 ovarian): 3.04 µM | TGI (OVCAR-5 ovarian): > 100 µM | GI50 (OVCAR-8 ovarian): 4.69 µM | TGI (OVCAR-8 ovarian): > 100 µM | GI50 (PC-3 prostate): 2.82 µM | TGI (PC-3 prostate): > 100 µM | GI50 (RPMI-8226 leukemia): 1.07 µM | TGI (RPMI-8226 leukemia): 3.92 µM | GI50 (RXF 393 renal): 2.06 µM | TGI (RXF 393 renal): 4.66 µM | GI50 (SF-268 CNS): 5.23 µM | TGI (SF-268 CNS): > 100 µM | GI50 (SF-295 CNS): 0.714 µM | TGI (SF-295 CNS): 3.21 µM | GI50 (SF-539 CNS): 1.98 µM | TGI (SF-539 CNS): 4.51 µM | GI50 (SK-MEL-2 melanoma): 5.82 µM | TGI (SK-MEL-2 melanoma): 39.7 µM | GI50 (SK-MEL-28 melanoma): 4.78 µM | TGI (SK-MEL-28 melanoma): 28.4 µM | GI50 (SK-MEL-5 melanoma): 2.27 µM | TGI (SK-MEL-5 melanoma): 8.05 µM | GI50 (SK-OV-3 ovarian): 2.97 µM | TGI (SK-OV-3 ovarian): 13.4 µM | GI50 (SN12C renal): 3.83 µM | TGI (SN12C renal): 76.7 µM | GI50 (SNB-19 CNS): 4.4 µM | TGI (SNB-19 CNS): 48.4 µM | GI50 (SNB-75 CNS): 2.76 µM | TGI (SNB-75 CNS): 21.9 µM | GI50 (SR leukemia): 1.11 µM | TGI (SR leukemia): 6.84 µM | GI50 (SW-620 colon): 2.39 µM | TGI (SW-620 colon): 18.1 µM | GI50 (T-47D breast): 3.6 µM | TGI (T-47D breast): 28.2 µM | GI50 (TK-10 renal): 6.58 µM | TGI (TK-10 renal): 25.5 µM | GI50 (U251 CNS): 3.26 µM | TGI (U251 CNS): 13.7 µM | GI50 (UACC-257 melanoma): 17.8 µM | TGI (UACC-257 melanoma): 76.7 µM | GI50 (UACC-62 melanoma): 3.48 µM | TGI (UACC-62 melanoma): 23.9 µM | GI50 (UO-31 renal): 1.58 µM | TGI (UO-31 renal): 17.4 µM
